From ChEMBL document CHEMBL1201862, “PubChem BioAssay data set” (2004) come the findings set out here.

Among the test systems are HL-60; HOP-62; OVCAR-4; CCRF-CEM; SW-620; HT-29; NCI-H23; NCI-H226; SN12C; SF-268; KM-20L2; IGROV-1; SK-MEL-28; HCT-15; DMS-273; LOX IMVI; SK-MEL-5; Malme-3M; RXF 393.
What all share (assay): NCI anticancer screen, dose series, 48 h

The structures appear in SMILES notation.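 Five compound concentrations were applied to cells in 96-well plates for 48 hours; endpoints were derived by simple linear interpolation of the resulting dose-response curve. At the GI50, growth is halved.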 Active and inactive are the calls of the source. Rule as the data show it: active = GI50 up to about 1.1 µM and inactive = higher.

Consider `Cc1ccc(S(=O)(=O)N/N=C\c2c3ccccc3[n+]([O-])c3ccccc23)cc1`, for which the GI50 in the test with HL-60 is 0.889 µM (active); with HOP-62, 5.38 µM (inactive); in the test on OVCAR-4, 10.8 µM (inactive); in the test on CCRF-CEM, 0.476 µM (active); in the test with SW-620, 2.18 µM (inactive); in the test with HT-29 it was 1.63 µM (inactive). Also, the GI50 in the test on NCI-H23 was 4.48 µM (inactive); in the test with NCI-H226, 4.54 µM (inactive); in the test with SN12C, 4.59 µM (inactive); in the test on SF-268, 4.23 µM (inactive); in the test on KM-20L2, 2.96 µM (inactive); in the test on IGROV-1, 9.25 µM (inactive). The GI50 with SK-MEL-28 is 3.78 µM (inactive); in the test with HCT-15, 0.989 µM; with DMS-273, 3.41 µM (inactive); in the test with LOX IMVI it was 1.08 µM (active); in the test on SK-MEL-5 it was 5.21 µM (inactive); in the test with Malme-3M, 12.2 µM (inactive).

As to `CCCN(CCCC(NC(C)=O)C(=O)NCc1ccccc1)C(=O)NC` (stereo not given), the GI50 in the test with HOP-62, in the test on RXF 393, in the test on OVCAR-4, with CCRF-CEM, with SW-620 and with HT-29 was > 100 µM (inactive) throughout. Also, the GI50 with NCI-H23, with NCI-H226, in the test with SN12C, with SF-268, with KM-20L2 and in the test with IGROV-1 was > 100 µM (inactive) each time. In addition, the GI50 with SK-MEL-28 is > 100 µM (inactive); with HCT-15 it was > 100 µM; in the test with DMS-273 it was > 100 µM (inactive); in the test on LOX IMVI, > 100 µM (inactive); with SK-MEL-5, > 100 µM (inactive); in the test with Malme-3M, > 100 µM (inactive).

Take `CC1=C(c2cc(C(=O)Nc3cccc(C(F)(F)F)c3)ncn2)Sc2ccccc2N1`: the GI50 in the test on HL-60, in the test with HOP-62, with OVCAR-4, in the test with CCRF-CEM, with SW-620 and in the test on HT-29 was > 100 µM (inactive) each time. In addition, the GI50 with NCI-H23, in the test with NCI-H226, in the test with SN12C, in the test on SF-268, in the test with KM-20L2 and in the test with IGROV-1 was > 100 µM (inactive) in each case. The GI50 in the test on SK-MEL-28 was > 100 µM (inactive); in the test on HCT-15, > 100 µM; in the test with DMS-273, > 100 µM (inactive); in the test on SK-MEL-5, > 100 µM (inactive); with Malme-3M, > 100 µM (inactive).

Consider `COc1ccccc1NC(=O)C(CC(C(=O)Nc1ccccc1OC)/C(C)=N/Nc1ccc([N+](=O)[O-])cc1[N+](=O)[O-])/C(C)=N/Nc1ccc([N+](=O)[O-])cc1[N+](=O)[O-]` (stereo not given), for which the GI50 with HL-60 was 41.5 µM (inactive); with HOP-62, > 95.5 µM (inactive); in the test with OVCAR-4, > 81.3 µM (inactive); in the test on CCRF-CEM, 63.5 µM (inactive); in the test on SW-620, > 94.8 µM (inactive); in the test on HT-29, > 100 µM (inactive). The GI50 with NCI-H23 was > 83.8 µM (inactive); with NCI-H226 it was > 100 µM (inactive); in the test with SN12C, > 100 µM (inactive); in the test on SF-268, > 84.9 µM (inactive); with KM-20L2, > 100 µM (inactive); in the test on IGROV-1, 54.5 µM (inactive). The GI50 was > 83.2 µM (inactive) in the test with SK-MEL-28; > 91.6 µM in the test with HCT-15; 56 µM (inactive) with DMS-273; 40.2 µM (inactive) in the test on LOX IMVI; 31.6 µM (inactive) with SK-MEL-5; > 100 µM (inactive) in the test with Malme-3M.

Regarding `c1ccc(C2=NOC3COc4ccccc4OCC23)cc1` (stereo not given), the GI50 in the test with HL-60 is 89.5 µM (inactive); in the test on HOP-62, > 100 µM (inactive); in the test with RXF 393, > 100 µM (inactive); with OVCAR-4, > 100 µM (inactive); in the test with CCRF-CEM, > 100 µM (inactive); in the test on SW-620, > 100 µM (inactive). For the same compound, the GI50 in the test with HT-29, in the test with NCI-H23, with SN12C, with SF-268, with KM-20L2 and with SK-MEL-28 was > 100 µM (inactive) throughout. Moreover, the GI50 is > 100 µM with HCT-15; > 100 µM (inactive) with DMS-273; > 100 µM (inactive) in the test on LOX IMVI; 61.5 µM (inactive) in the test on SK-MEL-5; > 100 µM (inactive) in the test on Malme-3M.

For the compound `CCc1oc2ccc(OC)c3c2c1C=CC=C3`, the GI50 is 87.7 µM (inactive) in the test on HL-60; > 100 µM (inactive) with HOP-62; 54.1 µM (inactive) in the test on RXF 393; > 100 µM (inactive) with OVCAR-4; > 100 µM (inactive) in the test with CCRF-CEM; > 100 µM (inactive) in the test with SW-620. Moreover, the GI50 in the test with HT-29 is 77.3 µM (inactive); in the test on NCI-H23 it was > 100 µM (inactive); with NCI-H226, > 100 µM (inactive); in the test on SN12C, > 100 µM (inactive); in the test on SF-268, > 100 µM (inactive); with IGROV-1 it was > 100 µM (inactive). The GI50 is > 100 µM (inactive) in the test with SK-MEL-28; > 100 µM with HCT-15; > 100 µM (inactive) in the test on DMS-273; > 100 µM (inactive) with LOX IMVI; > 100 µM (inactive) with SK-MEL-5; > 100 µM (inactive) with Malme-3M.

Regarding `CC1(C)CC(C)(C)CC(O)(C2(O)CC(C)(C)CC(C)(C)C2)C1`, the GI50 in the test on HL-60, with HOP-62, in the test on CCRF-CEM, with SW-620, in the test on HT-29 and with NCI-H23 was > 100 µM (inactive) throughout. Also, the GI50 in the test with NCI-H226, in the test on SN12C, in the test on SF-268, in the test with KM-20L2, in the test with IGROV-1 and in the test on SK-MEL-28 was > 100 µM (inactive) each time. Further, the GI50 in the test on HCT-15 was > 100 µM; in the test on DMS-273 it was > 100 µM (inactive); in the test with LOX IMVI, > 100 µM (inactive); in the test on SK-MEL-5, > 100 µM (inactive); in the test on Malme-3M it was > 100 µM (inactive).

On to `CCCCCCCOc1ccc(/C=C\c2cc[n+](CCCCCCCC[n+]3ccc(/C=C\c4ccc(OCCCCCCC)cc4)cc3)cc2)cc1`, for which the GI50 with HL-60 was 4.3 µM (inactive); in the test with HOP-62, 26.6 µM (inactive); in the test with RXF 393, > 100 µM (inactive); in the test with OVCAR-4, 21.6 µM (inactive); in the test on CCRF-CEM, > 100 µM (inactive); with HT-29 it was 13.8 µM (inactive). For the same compound, the GI50 in the test on NCI-H23 was 28.2 µM (inactive); in the test on SN12C, 20 µM (inactive); in the test with SF-268, 23.8 µM (inactive); with KM-20L2 it was 29.6 µM (inactive); with IGROV-1 it was 11.3 µM (inactive); in the test with SK-MEL-28, 17.6 µM (inactive). Besides, the GI50 in the test on HCT-15 was 19.9 µM; with DMS-273, 4.3 µM (inactive); in the test on LOX IMVI, 25 µM (inactive); in the test with SK-MEL-5, 14.6 µM (inactive); with Malme-3M it was 18.7 µM (inactive).

As for `CN(C)c1ccc(/C=C(\NC(=O)c2ccccc2)c2nc3ccc4c(c3[nH]2)C(=O)c2ccccc2C4=O)cc1`, the GI50 was 61.9 µM (inactive) in the test with HOP-62; 18.9 µM (inactive) with RXF 393; 47.2 µM (inactive) in the test with OVCAR-4; 0.966 µM (active) with CCRF-CEM; 33.2 µM (inactive) in the test with SW-620; 69.3 µM (inactive) with HT-29. The GI50 in the test on NCI-H23 was 18.1 µM (inactive); in the test with SN12C it was 34 µM (inactive); in the test with SF-268 it was 7.14 µM (inactive); in the test with KM-20L2, > 100 µM (inactive); with IGROV-1, 11.4 µM (inactive); with SK-MEL-28, 27.5 µM (inactive). For the same compound, the GI50 was 34.1 µM in the test with HCT-15; 27.2 µM (inactive) with DMS-273; 20.2 µM (inactive) in the test on LOX IMVI; 34.3 µM (inactive) with SK-MEL-5; > 100 µM (inactive) in the test with Malme-3M.

As for `c1ccc(CN(Cc2ccccn2)Cn2cccn2)nc1`, the GI50 is 22.9 µM (inactive) with HL-60; > 100 µM (inactive) in the test on HOP-62; 57.5 µM (inactive) in the test on RXF 393; > 100 µM (inactive) in the test on OVCAR-4; 29.5 µM (inactive) with CCRF-CEM; 48 µM (inactive) in the test with SW-620. The GI50 with NCI-H23 is 50.5 µM (inactive); in the test on SN12C it was 47.9 µM (inactive); in the test with SF-268 it was 76.6 µM (inactive); in the test with KM-20L2 it was 51.5 µM (inactive); with SK-MEL-28 it was 15.7 µM (inactive); in the test with HCT-15, 28.7 µM. The GI50 in the test with DMS-273 is 35.7 µM (inactive); in the test with LOX IMVI, 67.6 µM (inactive); with SK-MEL-5 it was 43.9 µM (inactive).

As for `Cc1ccc(NC(=O)C(=O)C(C(=O)c2ccc3ccccc3c2)C2OC(=O)c3ccccc32)cc1C` (stereo not given), the GI50 in the test on HL-60 was 8.87 µM (inactive); in the test with HOP-62, 14.7 µM (inactive); with OVCAR-4, 13.1 µM (inactive); with CCRF-CEM it was 5.2 µM (inactive); in the test with SW-620 it was 14.7 µM (inactive); with HT-29 it was 33 µM (inactive). In addition, the GI50 in the test with NCI-H23 was 4.79 µM (inactive); in the test with NCI-H226 it was 3.14 µM (inactive); in the test with SN12C, 18.9 µM (inactive); in the test with SF-268, 7.41 µM (inactive); in the test with KM-20L2, 35.2 µM (inactive); with IGROV-1 it was 18.7 µM (inactive). The GI50 in the test on SK-MEL-28 was 10.3 µM (inactive); in the test on HCT-15, 5.02 µM; in the test with DMS-273, 5.87 µM (inactive); with LOX IMVI, 14.4 µM (inactive); in the test on SK-MEL-5 it was 15.2 µM (inactive); in the test on Malme-3M, 12.7 µM (inactive).
